Where two headings read alike, the source gives them in different places.
How the values were obtained:
[1] = target: T1, STAT3 (Homo sapiens, UniProt P40763); assay: STAT3 Fluorescence Polarization (FP) Assay; assay type: binding
T1 construct: Recombinant STAT3 protein (STAT3(G127-I722))
Protocol: An FP assay was developed to determine IC50 values for test substances.
Recombinant STAT3 protein (STAT3(G127-I722)) at 25 nM was combined with a fluorescently labeled, phosphotyrosine peptide probe (5-FAM-GpYLPQTV-NH2) at 2 nM in FP buffer (10 mM HEPES pH 7.4, 50 mM NaCl, 1 mM EDTA, 0.05% Tween 20, 2 mM DTT). 50 μL of STAT3-probe mixture was added to serial diluted compounds in black, 96-well plates (Greiner BioOne 655076) to a final concentration of 1% DMSO. Reaction components were mixed, and FP was measured after 45-minute incubation at room temperature using a Tecan Spark multimode plate reader. FP signal (mP) was plotted against the log concentration of the test substances and IC50 values were calculated by nonlinear regression analysis using GraphPad Prism software. For STAT3 FP assay, A=≤100 nM; B=>100-1000 nM; C=>1-10 μM; and D=>10 μM.

[2] = target: T2, STAT6 (Homo sapiens, UniProt P42226); assay: STAT6 Fluorescence Polarization (FP) Assay; assay type: binding
T2 construct: Recombinant STAT6 protein (STAT6(W123-T658))
T2 sequence (P42226 123-658): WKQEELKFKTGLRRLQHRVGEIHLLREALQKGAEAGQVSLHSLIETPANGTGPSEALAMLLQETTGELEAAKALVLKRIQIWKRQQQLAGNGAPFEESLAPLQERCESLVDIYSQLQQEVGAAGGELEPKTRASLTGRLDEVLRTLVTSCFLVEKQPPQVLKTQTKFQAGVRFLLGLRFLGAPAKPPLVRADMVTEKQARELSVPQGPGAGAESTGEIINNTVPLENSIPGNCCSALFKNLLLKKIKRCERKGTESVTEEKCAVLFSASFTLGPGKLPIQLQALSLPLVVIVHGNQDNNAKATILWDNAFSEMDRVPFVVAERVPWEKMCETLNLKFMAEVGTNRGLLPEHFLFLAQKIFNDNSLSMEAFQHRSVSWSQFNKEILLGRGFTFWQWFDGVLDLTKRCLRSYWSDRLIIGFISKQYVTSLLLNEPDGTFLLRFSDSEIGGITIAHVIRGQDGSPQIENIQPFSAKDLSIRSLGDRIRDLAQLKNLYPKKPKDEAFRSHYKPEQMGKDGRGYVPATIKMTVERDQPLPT
Protocol: An FP assay was developed to determine IC50 values for test substances. Recombinant STAT6 protein (STAT6(W123-T658)) at 250 nM was combined with a fluorescently labeled, phosphotyrosine peptide probe (5-FAM-ApYKPFQDLI-NH2) at 2 nM in FP buffer (10 mM HEPES pH 7.4, 50 mM NaCl, 1 mM EDTA, 0.05% Tween 20, 2 mM DTT). 50 μL of STAT6-probe mixture was added to serial diluted compounds in black, 96-well plates (Greiner BioOne 655076) to a final concentration of 1% DMSO. Reaction components were mixed, and FP was measured after 45-minute incubation at room temperature using a Tecan Spark multimode plate reader. FP signal (mP) was plotted against the log concentration of the test substances and IC50 values were calculated by nonlinear regression analysis using GraphPad Prism software. For STAT6 FP assay, A=≤300 nM; B=>300-3000 nM; C=>3-30 μM; and D=>30 μM.

[3] = target: pSTAT3 (Homo sapiens, UniProt P40763); assay: MSD-pSTAT-PBMC Assay (pSTAT3, IL-6 stimulated); assay type: cell-based
Text: Cryopreserved Peripheral Blood Mononuclear Cells (PBMC) are from AllCells. Recombinant Human IL-4 and IL-6 are from Peprotech. Mouse monoclonal anti-STAT3 antibody, rabbit monoclonal anti-pY705-STAT3 antibody, rabbit monoclonal Anti-pY641-STAT6 antibody, and lysis buffer are from Cell Signaling Technology (CST). Mouse monoclonal anti-STAT6 antibody is from BioLegend. Assay plates, blocker, and anti-rabbit secondary antibody are from Meso Scale Discovery (MSD).
Cryopreserved PBMCs were thawed out and allowed to recover overnight in IMDM+10% heat-inactivated FBS prior to plating 50,000 (STAT3) or 25,000 (STAT6) cells per well in 96-well U-bottom tissue culture plates. Cells were treated with compound for 3 hrs, then stimulated with 10 ng/mL IL-6 (STAT3) or 1 ng/mL IL-4 (STAT6) for 10 min. Cells were then spun down and washed with ice-cold PBS prior to lysing the cell pellet with 1× lysis buffer (CST) with 1× HALT protease and phosphatase inhibitor cocktail (Thermo). Lysates were transferred to and incubated overnight at 4° C. with shaking in QuickPlex 96-well high bind assay plates (MSD) pre-coated overnight with 30 μL per well of […] mouse monoclonal anti-STAT3 antibody (STAT3) or 2 μg/mL mouse monoclonal anti-STAT6 antibody (STAT6) in 1× PBS, and pre-blocked for 1 hour with 3% Blocker-A (MSD). Captured protein in the assay plates were then washed and probed with 25 μL per well of […] rabbit monoclonal anti-pY705-STAT3 antibody (STAT3) or […] rabbit monoclonal Anti-pY641-STAT6 antibody (STAT6) in 1% Blocker-A for 1 hour at room temperature with shaking, then washed and probed with 25 ul per well of 1 ug/ml Sulfo-TAG Labeled Goat Anti-Rabbit Antibody (MSD) in 1% Blocker-A for 1 hour at room temperature with shaking. Assay plates were then washed and 150 μL of 1× Read Buffer-T (MSD) was added to each well prior to reading on an SQ120 MSD Plate Reader. Assay signal from each sample was subtracted by the signal from unstimulated control wells and normalized to DMSO control wells. IC50 values were calculated using Graph Pad Prism Dose-Response Nonlinear Regression with variable slope. For both pSTAT3 and pSTAT6 A=≤100 nM; B=>100-1000 nM; C=>1000-3000 nM; and D=>3 μM.

[4] = read-out: pSTAT3 IC50, compound 3 hrs, then 10 ng/mL IL-6 10 min, pY705-STAT3
[5] = compound 3 hrs, then 10 ng/mL IL-6 10 min, pY705-STAT3, read-out: pSTAT3 IC50

pSTAT3, sequence (P40763 whole entry): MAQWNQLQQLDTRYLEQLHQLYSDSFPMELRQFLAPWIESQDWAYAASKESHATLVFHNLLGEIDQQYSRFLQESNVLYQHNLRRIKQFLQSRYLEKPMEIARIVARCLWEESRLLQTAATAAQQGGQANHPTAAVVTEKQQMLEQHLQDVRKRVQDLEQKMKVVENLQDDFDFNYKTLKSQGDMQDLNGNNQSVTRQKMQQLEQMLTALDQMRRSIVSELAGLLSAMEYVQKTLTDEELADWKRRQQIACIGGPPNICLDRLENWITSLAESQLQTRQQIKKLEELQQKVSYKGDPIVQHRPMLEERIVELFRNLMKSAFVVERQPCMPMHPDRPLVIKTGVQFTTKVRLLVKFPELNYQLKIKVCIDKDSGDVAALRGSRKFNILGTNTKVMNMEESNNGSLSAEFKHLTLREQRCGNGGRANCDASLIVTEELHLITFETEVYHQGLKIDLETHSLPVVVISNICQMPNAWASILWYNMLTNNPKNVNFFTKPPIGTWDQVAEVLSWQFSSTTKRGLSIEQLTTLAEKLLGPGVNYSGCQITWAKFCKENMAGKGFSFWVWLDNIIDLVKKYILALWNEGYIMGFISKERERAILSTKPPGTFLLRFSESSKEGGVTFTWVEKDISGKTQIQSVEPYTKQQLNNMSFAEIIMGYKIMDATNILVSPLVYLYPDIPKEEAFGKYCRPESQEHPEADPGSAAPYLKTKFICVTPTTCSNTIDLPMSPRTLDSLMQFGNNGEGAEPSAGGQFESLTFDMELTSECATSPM
T1 sequence (P40763 127-722): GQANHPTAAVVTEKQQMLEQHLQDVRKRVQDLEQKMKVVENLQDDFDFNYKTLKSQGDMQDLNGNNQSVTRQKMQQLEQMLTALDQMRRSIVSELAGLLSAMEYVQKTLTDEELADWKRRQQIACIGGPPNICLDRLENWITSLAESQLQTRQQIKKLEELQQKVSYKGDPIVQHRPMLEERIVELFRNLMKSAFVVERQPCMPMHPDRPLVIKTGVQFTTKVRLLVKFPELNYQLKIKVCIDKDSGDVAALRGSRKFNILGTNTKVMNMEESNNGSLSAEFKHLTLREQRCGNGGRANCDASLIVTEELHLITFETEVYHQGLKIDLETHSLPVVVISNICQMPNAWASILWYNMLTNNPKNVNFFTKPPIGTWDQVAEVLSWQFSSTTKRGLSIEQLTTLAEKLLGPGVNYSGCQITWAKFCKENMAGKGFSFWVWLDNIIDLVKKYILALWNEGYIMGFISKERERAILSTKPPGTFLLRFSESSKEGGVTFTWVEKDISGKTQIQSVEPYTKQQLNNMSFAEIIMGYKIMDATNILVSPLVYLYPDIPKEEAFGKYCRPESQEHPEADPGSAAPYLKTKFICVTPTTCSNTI

IC50 [1] | IC50 [2] | IC50 [3, 5] | SMILES | IC50 [3, 4]
< 0.1 µM | 3 to 30 µM | > 3 µM | O=C1CCC(c2ccc(OCCOc3ccncc3C3CN(C(=O)[C@@H]4CC[C@@H]5CCC[C@H](NC(=O)c6cc7cc(C(F)(F)P(=O)(O)O)ccc7s6)C(=O)N54)C3)cc2)C(=O)N1 (stereo partly drawn) [Compound 9, ((2-(((3S,6S,9aS)-3-(3-(4-(2-(4-(2,6-dioxopiperidin-3-yl)phenoxy)ethoxy)pyridin-3-yl)azetidine-1-carbonyl)-5-oxooctahydro-1H-pyrrolo[1,2-a]azepin-6-yl)carbamoyl)benzo[b]thiophen-5-yl)difluoromethyl)phosphonic acid] | 
< 0.1 µM | 3 to 30 µM | > 3 µM | O=C1CCC(c2ccc(OCCOCCOc3ccncc3C3CN(C(=O)[C@@H]4CC[C@@H]5CCC[C@H](NC(=O)c6cc7cc(C(F)(F)P(=O)(O)O)ccc7s6)C(=O)N54)C3)cc2)C(=O)N1 (stereo partly drawn) [Compound 11, ((2-(((3S,6S,9aS)-3-(3-(4-(2-(2-(4-(2,6-dioxopiperidin-3-yl)phenoxy)ethoxy)ethoxy)pyridin-3-yl)azetidine-1-carbonyl)-5-oxooctahydro-1H-pyrrolo[1,2-a]azepin-6-yl)carbamoyl)benzo[b]thiophen-5-yl)difluoromethyl)phosphonic acid] | 

Further lines, the compound ahead of its results:

SMILES | IC50 [1] | IC50 [2] | IC50 [3, 5] | IC50 [3, 4]
O=C(COc1cccc2c1C(=O)N(C1CCC(=O)NC1=O)C2=O)NCCOCCOCC(=O)NC1(c2ccccn2)CN(C(=O)[C@@H]2CC[C@H]3CCCC[C@H](NC(=O)c4cc5cc(C(F)(F)P(=O)(O)O)ccc5s4)C(=O)N32)C1 (stereo partly drawn) [Compound 32, ((2-(((3S,6S,10aR)-3-(3-(2-(2-(2-(2-((2-(2,6-dioxopiperidin-3-yl)-1,3-dioxoisoindolin-4-yl)oxy)acetamido)ethoxy)ethoxy)acetamido)-3-(pyridin-2-yl)azetidine-1-carbonyl)-5-oxodecahydropyrrolo[1,2-a]azocin-6-yl)carbamoyl)benzo[b]thiophen-5-yl)difluoromethyl)phosphonic acid] | < 0.1 µM | 3 to 30 µM |  | > 3 µM
O=C(COc1cccc2c1C(=O)N(C1CCC(=O)NC1=O)C2=O)NCCOCCOCCC(=O)NC1(c2ccccn2)CN(C(=O)[C@@H]2CC[C@H]3CCCC[C@H](NC(=O)c4cc5cc(C(F)(F)P(=O)(O)O)ccc5s4)C(=O)N32)C1 (stereo partly drawn) [Compound 30, ((2-(((3S,6S,10aR)-3-(3-(3-(2-(2-(2-((2-(2,6-dioxopiperidin-3-yl)-1,3-dioxoisoindolin-4-yl)oxy)acetamido)ethoxy)ethoxy)propanamido)-3-(pyridin-2-yl)azetidine-1-carbonyl)-5-oxodecahydropyrrolo[1,2-a]azocin-6-yl)carbamoyl)benzo[b]thiophen-5-yl)difluoromethyl)phosphonic acid] | < 0.1 µM | 3 to 30 µM |  | > 3 µM
Cn1c(=O)n(C2CCC(=O)NC2=O)c2ccc(C#CCCC3CCN(c4ccncc4C4CN(C(=O)[C@@H]5CC[C@@H]6CCC[C@H](NC(=O)c7cc8cc(C(F)(F)P(=O)(O)O)ccc8s7)C(=O)N65)C4)CC3)cc21 (stereo partly drawn) [Compound 34, ((2-(((3S,6S,9aS)-3-(3-(4-(4-(4-(1-(2,6-dioxopiperidin-3-yl)-3-methyl-2-oxo-2,3-dihydro-1H-benzo[d]imidazol-5-yl)but-3-yn-1-yl)piperidin-1-yl)pyridin-3-yl)azetidine-1-carbonyl)-5-oxooctahydro-1H-pyrrolo[1,2-a]azepin-6-yl)carbamoyl)benzo[b]thiophen-5-yl)difluoromethyl)phosphonic acid] | < 0.1 µM | 0.3 to 3 µM | 0.1 to 1 µM | 
Cc1ncsc1-c1ccc([C@H](C)NC(=O)[C@@H]2C[C@@H](O)CN2C(=O)[C@@H](NC(=O)COCCOCCC(=O)NC2(c3ccccn3)CN(C(=O)[C@@H]3CC[C@H]4CCCC[C@H](NC(=O)c5cc6cc(C(F)(F)P(=O)(O)O)ccc6s5)C(=O)N43)C2)C(C)(C)C)cc1 [Compound 33, (difluoro(2-(((3S,6S,10aR)-3-(3-(3-(2-(2-(((S)-1-((2S,4R)-4-hydroxy-2-(((S)-1-(4-(4-methylthiazol-5-yl)phenyl)ethyl)carbamoyl)pyrrolidin-1-yl)-3,3-dimethyl-1-oxobutan-2-yl)amino)-2-oxoethoxy)ethoxy)propanamido)-3-(pyridin-2-yl)azetidine-1-carbonyl)-5-oxodecahydropyrrolo[1,2-a]azocin-6-yl)carbamoyl)benzo[b]thiophen-5-yl)methyl)phosphonic acid] | < 0.1 µM | 3 to 30 µM |  | > 3 µM
Cn1c(=O)n(C2CCC(=O)NC2=O)c2ccc(C#CCCC3CCN(c4ccncc4C4CN(C(=O)[C@@H]5CC[C@@H]6CCC[C@H](NC(=O)c7cc8cc(C(F)P(=O)(O)O)ccc8s7)C(=O)N65)C4)CC3)cc21 (stereo partly drawn) [Compound 36, ((2-(((3S,6S,9aS)-3-(3-(4-(4-(4-(1-(2,6-dioxopiperidin-3-yl)-3-methyl-2-oxo-2,3-dihydro-1H-benzo[d]imidazol-5-yl)but-3-yn-1-yl)piperidin-1-yl)pyridin-3-yl)azetidine-1-carbonyl)-5-oxooctahydro-1H-pyrrolo[1,2-a]azepin-6-yl)carbamoyl)benzo[b]thiophen-5-yl)fluoromethyl)phosphonic acid] | < 0.1 µM | > 30 µM | 0.1 to 1 µM | 
Cn1c(=O)n(C2CCC(=O)NC2=O)c2ccc(C#CCCC3CCN(c4ccncc4C4CN(C(=O)[C@@H]5CC[C@@H]6CCC[C@H](NC(=O)c7cc8cc([C@H](F)P(=O)(O)O)ccc8s7)C(=O)N65)C4)CC3)cc21 (stereo partly drawn) [Compound 37, ((1R)-(2-(((3S,6S,9aS)-3-(3-(4-(4-(4-(1-(2,6-dioxopiperidin-3-yl)-3-methyl-2-oxo-2,3-dihydro-1H-benzo[d]imidazol-5-yl)but-3-yn-1-yl)piperidin-1-yl)pyridin-3-yl)azetidine-1-carbonyl)-5-oxooctahydro-1H-pyrrolo[1,2-a]azepin-6-yl)carbamoyl)benzo[b]thiophen-5-yl)fluoromethyl)phosphonic acid] | < 0.1 µM | 3 to 30 µM | 0.1 to 1 µM | 
